The source of these data is publication PMC5238392, “Origin of anti-tumor activity of the cysteine-containing GO peptides and further optimization of their cytotoxic properties” (Scientific Reports, 2017).

Like-named read-outs stand apart in the source and are kept apart here. Square brackets hold non-standard residues; d marks the D form. Peptide text beside a SMILES is read from it.

Data set [1] has as its system human breast carcinoma and prostate cancer cells. Conditions: cited from earlier work.
For data set [2] the following is noted: cited from earlier work. The source says: Some interesting examples of peptides with presumed DO mechanism can also be found in the literature. […] The efficiency of this peptide was critically dependent on the two contiguous cysteines: mutating these residues to alanines or serines completely abrogated its activity, whereas other alterations such as sequence reversal preserved the activity.

Data set [3] relates to human fibrosarcoma cell line HT-1080. In kind it is cell-based. The source says: To evaluate the activity of DIL, CopYL and seven other peptides described in Table 1, we have conducted the dose-response measurements on the sensitive (HT-1080) and insensitive (ZR-75-1) cancer cell lines. The results are shown in Fig. 7A–D. For fibrosarcoma cells HT-1080, the best results are obtained using the peptide DOL with presumed disulfide oxidase properties. […] This is a much better performance than shown by GO-202 where the survival rate under identical conditions is 16%.
All experiments were conducted in duplicate or triplicate.

Data set [4] has the same test system. In kind it is cell-based. The conditions noted are these: for Viability of HT-1080 cells (MTS): single 20 μM dose, different incubation times, Fig. 9.
Data set [5] relates to human endometrial mesenchymal stem cells (eMSC).
Description: (§1) The data are according to the MTS assay, where the optical density was measured 96 h after the application of the peptide.
(§2) As a next step, we set out to test the cytotoxic effect of these peptides on the normal cells. In addition to the primary culture of dermal fibroblasts, which has been discussed above, we have also used human endometrial mesenchymal stem cells (eMSC).
(§3) Cell survival was measured using CellTiter 96 AQueous One Solution Cell Proliferation Assay (MTS test, Promega, USA). Cells have been seeded in a 96-well flat-bottom plate in 100 μl of culture medium (10^3 cells/well for A549, HT-1080, dermal fibroblasts and eMSC or 5 × 10^3 cells/well for ZR-75-1) and allowed to attach for 24 h. The starting amount of cells was chosen to account for their growth rate and degree of spreading such as to avoid excessive dilution in the beginning of the experiment or control cell overgrowth toward the end. After 24 h, 10 μl of peptide stock solution or PBS (control) were added to the wells. After 96 h, 20 μl of the MTS-reagent were added to each well and 1–2 h later optical density was measured at the wavelength 492 nm using the 96-well plate reader (Titertek Multiskan, Labsystems, Finland). All experiments were conducted in duplicate or triplicate.
The subject of data set [6] is primary culture of human dermal fibroblasts (DF).
Description: (§4) As a next step, we used MTS assay[27] to examine the effect of GO peptides on the viability of the four described cell cultures as a function of different treatment schemes. […] This treatment regimen is labeled 4 × 5 underneath the graph. Alternatively, we introduced 5 μM of peptide daily while exchanging the medium (denoted 4/5). Unlike the previous protocol, it avoids potential build-up of the peptide in the medium.
(§5) The treatment protocols are: 4 × 5 – four daily doses of 5 μM delivered without exchanging the growth medium; 4/5 – four daily doses of 5 μM delivered with exchanged growth medium; 1 × 5, 1 × 10, 1 × 15, and 1 × 20 – a single dose of 5, 10, 15, or 20 μM, respectively. MTS reagent was added to the wells 96 h after the first (and sometimes the only) application of the peptide and the optical density at 492 nm was measured to determine the fraction of the surviving cells.
(§6) As a next step, we set out to test the cytotoxic effect of these peptides on the normal cells.
as §3
In data set [7] the test system is human breast carcinoma cell line ZR-75-1.
Description: as §4, §5, §1, §3
In data set [8] the test system is primary culture of human dermal fibroblasts (DF). Put plainly: MTS cell viability assay, dermal fibroblasts. The conditions noted are these: for Effect on proliferative activity at low dose (MTS): 5 μM single dose. On the technique in general: Formazan colour is commonly taken as a measure of viable cells.
Description: as §4, §5, §6, §3
For data set [9], the target named is T1, reduced and denatured hen egg white lysozyme (Gallus gallus, UniProt P00698).
T1 construct: Hen egg white lysozyme (Amresco, USA) was reduced/denatured and lyophilized; purchased Amresco, USA; host or cells: hen egg white
Put plainly: Lysozyme oxidative refolding assay (disulfide oxidoreductase activity). Type of data set: biochemical. Conditions: 1 mM peptide, pH 8.5, room temperature. An excerpt:
We have also conducted in vitro experiments to directly probe disulfide oxidoreductase properties of GO-202 peptide. For this purpose we have used the well-established lysozyme refolding assay. In brief, GO-202 is applied to the sample of reduced and denatured hen lysozyme. The protein then undergoes oxidative refolding, assisted by GO-202 which plays the role of disulfide oxidase (isomerase). After a certain interval of time (Tox) this process is quenched by adding an aliquot of acid and the sample is loaded on the reverse phase column.
Figure 10 Oxidative refolding of hen egg lysozyme as monitored by reverse-phase HPLC. […] Top panel (red traces) illustrate protein renaturation in the presence of GO-202; bottom panel (blue traces) represent control measurements with no peptide. The reaction time Tox ranging from 0 to 75 mins is listed on the left side of the individual chromatograms.
Hen egg white lysozyme (Amresco, USA) was reduced/denatured and lyophilized according to the protocol by van den Berg et al.[54]. It was then dissolved in buffer B1 (8 M urea, 100 mM Tris-HCl, 100 mM NaCl, 1 mM EDTA, pH 8.5) to obtain solution with 100 μM lysozyme concentration. Refolding was initiated by rapid dilution of 50 μL of this solution in 150 μL of buffer B2 (100 mM Tris-HCl, 100 mM NaCl, 1 mM EDTA, pH 8.5) containing the appropriate amount of redox agent (none for control experiment, 1.0 mM/0.2 mM GSH/GSSG for calibration experiment, 1 mM of GO-202 for disulfide oxidoreductase activity assay). The reactions were carried out at room temperature and quenched by addition of 10 μL of 2.5 M HCl to produce a pH of ca. 2. Buffers B1 and B2 were degassed prior to use by applying vacuum while stirred on magnetic stirrer for 30 min.
Reverse-phase chromatography data were obtained using Shimadzu Nexera HPLC with detection at 280 nm wavelength. The column used was Phenomenex Luna C-18 (5 μm particle size, 100 Å pore size, 150 mm length, 4.6 mm diameter); sample injection volume was 20 μL. HPLC solvent A was H2O/0.2% (v/v) trifluroacetic acid (TFA), solvent B was 90% CH3CN/10% H2O/0.2% TFA. Lysozyme was eluted using 30 min linear gradient from 35% to 45% of solvent B with a flow rate of 1 mL/min. Chromatograms from calibration GSH/GSSG experiments were in agreement with the previously reported data[54][63].

The subject of data set [10] is human breast carcinoma cell line ZR-75-1. Put plainly: MTS cell viability assay, ZR-75-1. The conditions noted are these: single dose.
Description: as §4, §5, §1, §3
Data set [11] has as its system human endometrial mesenchymal stem cells (eMSC). Put plainly: MTS cell viability assay, eMSC. The conditions noted are these: normal cells: eMSC; single dose, 96 h; Fig. 7E,F.
Description: as §1, §2, §3
Another data set deals with lysozyme. The conditions noted are these: oxidative refolding of lysozyme in vitro; cited from earlier work. An excerpt: One instructive example of the redox-active peptides in Table 1 is the peptide labeled DIL (disulfide-isomerase-like). Originally, Woycechowsky and Raines have investigated the CGC peptide, where they measured the redox potential of −167 mV[40]. […] Recently, a longer peptide, RKCGCFF, has been introduced by Liu et al.[41]. The two basic residues, RK, have been added to the sequence with the intent to lower the thiol pKa values, while the two hydrophobic residues, FF, have been included to improve binding of the pept ...

T1 sequence (P00698 19-147): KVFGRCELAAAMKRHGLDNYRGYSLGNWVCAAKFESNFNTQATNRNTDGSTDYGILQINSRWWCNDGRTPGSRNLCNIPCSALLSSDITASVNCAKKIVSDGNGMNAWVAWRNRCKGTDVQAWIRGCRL

Turning to [R]9AQARRKNYGQLDIFP [CP-1], the Cytotoxic properties entry in data set [1] is “no appreciable cytotoxic properties”.
Regarding GKAKCCK, the antimicrobial activity result in [2] is on record as “pronounced antimicrobial activity”.
As for “[R]9SQSRRKN [control: GO-202 with S-for-C substitution]”, in data set [3], the “Cytotoxic activity compared with GO-202 (dose-response, MTS)” value is “inefficient compared to GO-202”. Besides, the “Viability of HT-1080 cells (MTS)” value in data set [4] is given as “ineffective”.
As for [R]9KCGCFF [DIL], the “Cytotoxic activity compared with GO-202 (dose-response, MTS)” value is recorded as “less cytotoxic than GO-202” in data set [5], “second best result” in data set [3], “less cytotoxic than GO-202” in [6] and “significantly outperform GO-202” in [7]. In addition, the “Effect on proliferative activity at low dose (MTS)” value (“Effect on proliferative activity” below) in data set [8] (dermal fibroblasts, 96 h) is recorded as “small increases in proliferative activity”.
Regarding `N=C(N)NCCC[C@@H](N)C(=O)N[C@H](CCCNC(=N)N)C(=O)N[C@H](CCCNC(=N)N)C(=O)N[C@H](CCCNC(=N)N)C(=O)N[C@H](CCCNC(=N)N)C(=O)N[C@H](CCCNC(=N)N)C(=O)N[C@H](CCCNC(=N)N)C(=O)N[C@H](CCCNC(=N)N)C(=O)N[C@H](CCCNC(=N)N)C(=O)N[C@@H](CS)C(=O)N[C@@H](CCC(N)=O)C(=O)N[C@@H](CS)C(=O)N[C@@H](CCCNC(=N)N)C(=O)N[C@@H](CCCNC(=N)N)C(=O)N[C@@H](CCCCN)C(=O)N[C@@H](CC(N)=O)C(=O)O` [GO-202] (H-[dR][dR][dR][dR][dR][dR][dR][dR][dR]CQCRRKN-OH; N-terminus and C-terminus assumed), the “Disulfide oxidoreductase activity in oxidative refolding of lysozyme” value in data set [9] (25 μM-scale lysozyme diluted from 100 μM stock, RP-HPLC 280 nm) is on record as “moderately effective disulfide oxidoreductase”. Also, the “Reaction time Tox after which a significant fraction of lysozyme is fully oxidized natively folded” value in data set [9] (RP-HPLC) came to 15 min. Also, the “Reaction time Tox after which native form of lysozyme is dominant” value in data set [9] (RP-HPLC) came out at 75 min. Moreover, in data set [9] (RP-HPLC, control without peptide: partially oxidized after ca. 75 mins), the “Reaction time Tox after which no distinct peak from reduced lysozyme is observed” value is no more than 1 min. Also, the “Cell viability (MTS)” value in data set [4] (HT-1080, 4 × 5: four daily doses of 5 μM without exchanging growth medium, OD 492 nm 96 h after first application, duplicate or triplicate) is reported as “significant impact”; in [8] (dermal fibroblasts, 4 × 5: four daily doses of 5 μM without exchanging growth medium, OD 492 nm 96 h after first application), “significant impact”. Also, the “Viability of HT-1080 cells (MTS)” value in data set [4] was “cell death occurs soon after the GO-202 treatment”. Also, the “Cytotoxic activity compared with GO-202 (dose-response, MTS)” value in data set [10] (OD measured 96 h after application, Fig. 7C,D) is “modestly active”; in data set [8] (normal cells: dermal fibroblasts, single dose, 96 h, Fig. 7E,F), “highly sensitive”; in [11] it was “highly sensitive”. The “Effect on proliferative activity” value in data set [8] (dermal fibroblasts, 96 h) was “small increases in proliferative activity”.
Consider [R]9FFCPHCYQ [DOL], for which the “Cytotoxic activity compared with GO-202 (dose-response, MTS)” value in data set [5] is on record as “outperform GO-202”; in [3], “best results”; in [6], “strongest effect”; in data set [7], “best result”. In addition, the “survival rate (MTS assay)” value in data set [3] (HT-1080, 96 h incubation with 20 μM peptide, single dose) is “essentially fully eliminated”. Further, in data set [10] (20 μM, MTS 96 h), the “Effectiveness in killing cancer cells relative to GO-202” value is reported as “three times more effective”.
Consider “RKCGCFF [peptide of Liu et al., mimic of disulfide isomerase]”, for which the “Efficiency as a mimic of disulfide isomerase” value in the data set on lysozyme is reported as “increased efficiency”.
For the compound [R]9CCCRRKN, the “Cytotoxic activity compared with GO-202 (dose-response, MTS)” value is “strongest effect” in data set [5]; “outperform the standard GO-202, although only by a small margin” in data set [3]; “outperform GO-202” in [6]; “significantly outperform GO-202” in [7]. In data set [8] (dermal fibroblasts, 96 h), the “Effect on proliferative activity” value is given as “small increases in proliferative activity”.
Turning to [R]9SQCRRKN, the “Viability of HT-1080 cells (MTS)” value in [4] is “inactive”.
On to [R]9GCGPCG [DRL], for which the “Cytotoxic activity compared with GO-202 (dose-response, MTS)” value in [3] and in data set [7] was “inactive” in each case.
Consider [R]9CQSRRKN, for which, in data set [4], the “Viability of HT-1080 cells (MTS)” value is “inactive”.
